In ChEMBL document CHEMBL3044945, “Synthesis of 1,3,5-trisubstituted pyrazoline nucleus containing compounds and screening for antimicrobial activity” (2012):
In brackets after ≈: the same amount, converted by molar mass.

Legend:
Type in all cases: functional
Bacillus subtilis [1] = assay: Antibacterial activity against Bacillus subtilis MTCC 441 at 1250 ug/ml after 48 hr by cup-plate method; conditions: MTCC 441, 48 h, read-out: DIZ
Bacillus subtilis [2] = assay: Antibacterial activity against Bacillus subtilis MTCC 441 at 1000 ug/ml after 48 hr by cup-plate method; conditions: MTCC 441, 48 h, read-out: DIZ
Bacillus subtilis [3] = assay: Antibacterial activity against Bacillus subtilis MTCC 441 at 750 ug/ml after 48 hr by cup-plate method; conditions: MTCC 441, 48 h, read-out: DIZ
Bacillus subtilis [4] = assay: Antibacterial activity against Bacillus subtilis MTCC 441 at 500 ug/ml after 48 hr by cup-plate method; conditions: MTCC 441, 48 h, read-out: DIZ
Bacillus subtilis [5] = assay: Antibacterial activity against Bacillus subtilis MTCC 441 at 250 ug/ml after 48 hr by cup-plate method; conditions: MTCC 441, 48 h, read-out: DIZ
Bacillus subtilis [6] = assay: Antibacterial activity against Bacillus subtilis MTCC 441 at 100 ug/ml after 48 hr by cup-plate method; conditions: MTCC 441, 48 h, read-out: DIZ
Micrococcus luteus = assay: Antibacterial activity against Micrococcus luteus MTCC 1538 after 24 to 48 hr by tube dilution method
Escherichia coli [7] = assay: Antibacterial activity against Escherichia coli MTCC 1573 after 24 to 48 hr by tube dilution method
Penicillium chrysogenum [8] = assay: Antifungal activity against Penicillium chrysogenum MTCC 161 after 24 to 48 hr by tube dilution method
Aspergillus niger [9] = assay: Antifungal activity against Aspergillus niger MTCC 2546 after 24 to 48 hr by tube dilution method
Pseudomonas fluorescens [10] = assay: Antibacterial activity against Pseudomonas fluorescens MTCC 2421 after 24 to 48 hr by tube dilution method
Bacillus pumilus = assay: Antibacterial activity against Bacillus pumilus MTCC 1456 after 24 to 48 hr by tube dilution method
Pseudomonas aeruginosa = assay: Antibacterial activity against Pseudomonas aeruginosa MTCC 424 after 24 to 48 hr by tube dilution method
Staphylococcus aureus = assay: Antibacterial activity against Staphylococcus aureus MTCC 1430 after 24 to 48 hr by tube dilution method
Bacillus subtilis [11] = assay: Antibacterial activity against Bacillus subtilis MTCC 441 after 24 to 48 hr by tube dilution method
Penicillium chrysogenum [12] = assay: Antifungal activity against Penicillium chrysogenum MTCC 161 at 1250 ug/ml after 48 hr by cup-plate method; conditions: MTCC 161, 48 h, read-out: DIZ
Penicillium chrysogenum [13] = assay: Antifungal activity against Penicillium chrysogenum MTCC 161 at 1000 ug/ml after 48 hr by cup-plate method; conditions: MTCC 161, 48 h, read-out: DIZ
Penicillium chrysogenum [14] = assay: Antifungal activity against Penicillium chrysogenum MTCC 161 at 750 ug/ml after 48 hr by cup-plate method; conditions: MTCC 161, 48 h, read-out: DIZ
Penicillium chrysogenum [15] = assay: Antifungal activity against Penicillium chrysogenum MTCC 161 at 500 ug/ml after 48 hr by cup-plate method; conditions: MTCC 161, 48 h, read-out: DIZ
Aspergillus niger [16] = assay: Antifungal activity against Aspergillus niger MTCC 2546 at 1250 ug/ml after 48 hr by cup-plate method; conditions: MTCC 2546, 48 h, read-out: DIZ
Aspergillus niger [17] = assay: Antifungal activity against Aspergillus niger MTCC 2546 at 1000 ug/ml after 48 hr by cup-plate method; conditions: MTCC 2546, 48 h, read-out: DIZ
Aspergillus niger [18] = assay: Antifungal activity against Aspergillus niger MTCC 2546 at 500 ug/ml after 48 hr by cup-plate method; conditions: MTCC 2546, 48 h, read-out: DIZ
Pseudomonas fluorescens [19] = assay: Antibacterial activity against Pseudomonas fluorescens MTCC 2421 at 1250 ug/ml after 48 hr by cup-plate method; conditions: MTCC 2421, 48 h, read-out: DIZ
Pseudomonas fluorescens [20] = assay: Antibacterial activity against Pseudomonas fluorescens MTCC 2421 at 1000 ug/ml after 48 hr by cup-plate method; conditions: MTCC 2421, 48 h, read-out: DIZ
Pseudomonas fluorescens [21] = assay: Antibacterial activity against Pseudomonas fluorescens MTCC 2421 at 750 ug/ml after 48 hr by cup-plate method; conditions: MTCC 2421, 48 h, read-out: DIZ
Pseudomonas fluorescens [22] = assay: Antibacterial activity against Pseudomonas fluorescens MTCC 2421 at 500 ug/ml after 48 hr by cup-plate method; conditions: MTCC 2421, 48 h, read-out: DIZ
Escherichia coli [23] = assay: Antibacterial activity against Escherichia coli MTCC 1573 at 1250 ug/ml after 48 hr by cup-plate method; conditions: MTCC 1573, 48 h, read-out: DIZ

Question: What does the source list for O=[N+]([O-])c1ccc(C2CC(c3cccc4ccccc34)=NN2c2ccc([N+](=O)[O-])cc2[N+](=O)[O-])cc1 (configuration not stated)?
Answer: zone of inhibition at 1250 µg/mL (Bacillus subtilis [1]): 16 mm; zone of inhibition at 1000 µg/mL (Bacillus subtilis [2]): 15 mm; zone of inhibition at 750 µg/mL (Bacillus subtilis [3]): 14 mm; zone of inhibition at 500 µg/mL (Bacillus subtilis [4]): 13 mm; zone of inhibition at 250 µg/mL (Bacillus subtilis [5]): 12 mm; zone of inhibition at 100 µg/mL (Bacillus subtilis [6]): 11 mm; MIC (Micrococcus luteus): 150 µg/mL (≈ 310 µM); MIC (Escherichia coli [7]): 150 µg/mL (≈ 310 µM); MIC (Penicillium chrysogenum [8]): 50 µg/mL (≈ 103 µM); MIC (Aspergillus niger [9]): 150 µg/mL (≈ 310 µM); MIC (Pseudomonas fluorescens [10]): 150 µg/mL (≈ 310 µM); MIC (Bacillus pumilus): 30 µg/mL (≈ 62.1 µM); MIC (Pseudomonas aeruginosa): 50 µg/mL (≈ 103 µM); MIC (Staphylococcus aureus): 150 µg/mL (≈ 310 µM); MIC (Bacillus subtilis [11]): 50 µg/mL (≈ 103 µM); zone of inhibition at 1250 µg/mL (Penicillium chrysogenum [12]): 26 mm; zone of inhibition at 1000 µg/mL (Penicillium chrysogenum [13]): 24 mm; zone of inhibition at 750 µg/mL (Penicillium chrysogenum [14]): 22 mm; zone of inhibition at 500 µg/mL (Penicillium chrysogenum [15]): 18 mm; zone of inhibition at 1250 µg/mL (Aspergillus niger [16]): 23 mm; zone of inhibition at 1000 µg/mL (Aspergillus niger [17]): 21 mm; zone of inhibition at 500 µg/mL (Aspergillus niger [18]): 16 mm; zone of inhibition at 1250 µg/mL (Pseudomonas fluorescens [19]): 25 mm; zone of inhibition at 1000 µg/mL (Pseudomonas fluorescens [20]): 22 mm; zone of inhibition at 750 µg/mL (Pseudomonas fluorescens [21]): 21 mm; zone of inhibition at 500 µg/mL (Pseudomonas fluorescens [22]): 18 mm; zone of inhibition at 1250 µg/mL (Escherichia coli [23]): 17 mm
